What was measured:
PI3Kβ = target: T1, PI3Kβ (Homo sapiens, UniProt P42338); test: ADP-Glo Lipid Kinase Assay, PI3Kβ kinase activity; type: biochemical; details: ratio of IC50 values
T1 construct: purchased Carna #11-102
Experimental: (§1) In this experiment, ADP-Glo Lipid Kinase Assay (Promega #V9102) from Promega was used. The lipid kinases PI3Kα/β/γ/δ catalyzed the ATP-to-ADP reaction in the presence of the substrate PIP2:3PS and ATP. The lipid kinase activity was characterized by measuring the ADP content in the reaction, and the half inhibition concentrations IC50 of the compounds on PI3Kα/β/γ/δ kinase activity were obtained.
(§2) Kinase reactions were carried out in white 384-well plates (Perkin Elmer #6007299). 2 μL of the compound of various concentrations diluted with ddH2O containing 1% DMSO was added to each well, and 2 μL of ddH2O containing 1% DMSO was added to positive control wells. Then 2 μL of 0.1 to 2 nM PI3K kinase solution diluted with 5× kinase buffer (HEPES 250 mM, MgCl2 15 mM, NaCl 250 mM, BSA 0.05%) was added to each well, and 2 μL of 5× kinase buffer was added to the negative control wells. 4 μL of 50 μM substrate PIP2:3PS (Promega #V1701) prepared with 10× Dilution buffer and ddH2O was added to all wells. Finally, 2 μL of 50 to 100 μM ATP solution diluted with water was added to start the reaction. After the reaction was carried out at room temperature for 90 to 120 minutes, 10 µL of ADP-Glo Reagent (containing 10 mM MgCl2) was added to each well, and the reaction was carried out at room temperature for 60 minutes to eliminate excess adenosine triphosphate (ATP) in the reaction. Then 20 μL of Kinase Detection Reagent was added to each well. After the reaction was carried out for 20 minutes at room temperature in the dark, the chemiluminescence was measured by BioTek Synergy H1 microplate reader.
(§3) The percentage inhibition data of the compound-treated well was calculated from positive control wells (DMSO control wells) and negative control wells (no kinase added) on the plate {% inhibition=100−[(test compound value−negative control value)]/(positive control value-negative control value)×100}. IC50 values were calculated using GraphPad prism and using a four-parameter nonlinear logistic formula to fit the data of different concentrations and corresponding percent inhibition.

PI3Kδ = target: T2, PI3Kδ (Homo sapiens, UniProt O00329); test: ADP-Glo Lipid Kinase Assay, PI3Kδ kinase activity; type: biochemical; details: ratio of IC50 values
T2 construct: purchased Carna #11-103
Experimental: as §1, §2, §3

MKN1 (E545K) = test: Proliferation inhibition of PI3Kα mutant cancer cells, Cell Titer-Glo, MKN1; type: cell-based; details: Homo sapiens, MKN-1
Experimental: (§4) The proliferation inhibitory effect of the compounds of the examples on the PI3Kα mutant cancer cell lines (HCC1954, HGC-27 and MKN1) was detected by Cell Titer-Glo method. Cell lines were cultured in RPMI 1640 medium (Gibco #22400089) containing 10% FBS (Gibco #10091148) and 1% P/S (Hyclone #SV30010) under the condition of 37° C. and 5% CO2. The cells were collected before the experiment, and the cell density was adjusted after cell counting. The cells were seeded in a white 96-well plate (Corning #3610) at a density of 1000 to 10000 cells/well, and incubated in an incubator at 37° C. and 5% CO2 overnight. The prepared compound solutions of different concentrations and the corresponding solvent controls were added to the plate. The plate was again incubated in an incubator at 37° C. and 5% CO2 for 48 to 96 hours. Then the cell plate and its contents were equilibrated to room temperature. 20 to 100 μL of Cell Titer-Glo solution (Promega #G7573) was added to each well, and the plate was shaken and mixed well, then incubated at room temperature for 5 to 30 minutes in the dark. The chemiluminescence was measured by a SynergyH1 microplate reader from BioTek.
(§5) The percentage inhibition data of the compound-treated well was calculated from solvent control wells on the plate {% inhibition=100−([…])×100}. IC50 values were calculated using GraphPad prism and using a four-parameter nonlinear logistic formula to fit the data of different concentrations and corresponding percent inhibition.

HGC-27 (E542K) = test: Proliferation inhibition of PI3Kα mutant cancer cells, Cell Titer-Glo, HGC-27; type: cell-based; details: Homo sapiens
Experimental: as §4, §5

HCC1954 cell = test: In vivo efficacy test, HCC1954 tumor-bearing nude mice; design: species or system BALB/c nude mice; details: oral, 10 mg/kg, once/day, 21 days (Example 22: 19 days)
Experimental: • a. A strain of HCC1954 cell was taken from the cell bank, recovered with RPMI-1640 medium (RPMI-1640+10% FBS+1% SP), plated in a cell culture flask (cell type, date, name of the experimenter and the like were labeled on the wall of the flask) and cultured in a CO2 incubator (the temperature was 37° C. and the CO2 concentration was 5% in the incubator). • b. Cells were passaged when they covered 80 to 90% of the bottom of the culture flask. After passage, the cells continued to be cultured in the CO2 incubator. This process was repeated until the number of cells was sufficient for the in vivo efficacy test. • c. The cultured cells were collected and counted with an automatic cell counter, and then resuspended with PBS and Matrigel Matrix according to the counting results to prepare a cell suspension (density 5×10^7/mL), which was placed in an ice box for use. 4.3.2 Cell Inoculation • a. The nude mice were labeled with disposable universal ear tags for rats and mice before inoculation. • b. During the inoculation, the cell suspension was mixed well. 0.1 to 1 mL of the cell suspension was drawn with a 1 mL syringe, air bubbles were removed, and then the syringe was placed on an ice pack for use. • c. The nude mouse was bound with the left hand. The position on the right side of the back close to the right shoulder of the nude mouse (inoculation site) was disinfected with 75% alcohol. Inoculation started after 30 seconds. • d. The test nude mice were successively inoculated (each mouse was inoculated with 0.1 mL of cell suspension). 4.3.3 Tumor Measurement, Grouping and Administration of Tumor-Bearing Mice • a. According to the tumor growth, the tumors was measured on 14 to 18 days after inoculation, and the tumor size was calculated. Calculation of tumor volume: tumor volume (mm^3)=length (mm)×width (mm)×width (mm)/2 • b. The tumor-bearing mice were grouped according to their body weight and tumor size by random grouping. • c. The test compounds were administered according to the grouping results (administration route: oral administration; administration dose: 10 mg/kg; administration volume: 10 mL/kg; administration frequency: once/day; administration cycle: 21 days; vehicle: 0.5% CMC/1% Tween 80). • d. Tumors were measured and weighed twice a week after the administration of test compounds began. • e. Animals were euthanized at the end of the experiment. • f. Data were processed by using softwares such as Excel. […] When the tumor regress, TGI (%)=[1−(average tumor volume of the treatment group at the end of the administration−average tumor volume of the treatment group at the beginning of the administration)/average tumor volume of the treatment group at the beginning of the administration]×100%.

PI3Kγ = target: T3, PI3Kγ (Homo sapiens, UniProt P48736); test: ADP-Glo Lipid Kinase Assay, PI3Kγ kinase activity; type: biochemical; details: ratio of IC50 values
T3 construct: purchased Thermofisher #PV4786
Experimental: as §1, §2, §3

HCC1954 (H1047R) = test: Proliferation inhibition of PI3Kα mutant cancer cells, Cell Titer-Glo, HCC1954; type: cell-based; details: Homo sapiens
Experimental: as §4, §5

SD rats = test: Toxicity test of a 7-day repeatedly intragastric administration in SD rats; type: in vivo; details: SD rats, intragastric once/day, 7 days
Excerpt: • Test compound 1: GDC-0077 • Test compound 2: the compounds of Example 22 and Example 62 3.2.2 Vehicle • Name: 20% aqueousSBE-β-CD (Captisol) solution 3.2.3 Animal Information • Species & strains: Sprague-Dawley (SD) rat • Animal grade: SPF grade • Number and sex of animals: 160 rats, half male and half female. 3.2.4 Instruments • The ADVIA®2120 series Hematology System with Autoslide was used for blood cell counting; • The SYSMEX CA-500 Coagulation Analyzer was used for the detection of coagulation function indicators; • The TBA-120FR Automated Biochemical Analyzer was used for the detection of blood biochemical indicators; • The Easylyte Electrolyte Analyzer was used for the detection of electrolytes; • The liquid mass spectrometry detector model API4000; • The electron spray ionization (ESI) positive ion mode and column type Agilent ZORBAX XDB-C18 (3.5 μm, 2.1×50 mm) were used for bioanalytical detection of plasma samples. 3.3 Experimental Method • 1) In the experiment, 160 rats (80 rats/sex) were divided into 20 groups according to their sex and body weight, wherein 100 rats were used for toxicology study (groups 1 to 10, 5 rats/sex/group) and 60 rats were used for toxicokinetic study (groups 11 to 20, 3 rats/sex/group); • 2) As the vehicle control group, the animals in groups 1 and 11 were intragastrically administered 20% aqueous SBE-β-CD (Captisol) solution; • 3) The animals in groups 2 and 12, groups 3 and 13, and groups 4 and 14 were intragastrically administered 10, 30 and 60 mg/kg of GDC-0077, respectively; • 4) The animals in groups 5 and 15, groups 6 and 16, and groups 7 and 17 were intragastrically administered 10, 30 and 60 mg/kg of the compound of Example 22, respectively; • 5) The animals in groups 8 and 18, groups 9 and 19, groups 10 and 20 were intragastrically administered 10, 30 and 60 mg/kg of the compound of Example 62, respectively; • 5) The animals were administered once a day for 7 consecutive days (the animals in groups 7, 17, 10 and 20 were administered for 6 consecutive days). • 6) The administration volume was 10 mL/kg. • 7) During the experiment, items such as clinical observation, body weight, food intake, clinicopathological indicators (blood cell count, coagulation function, blood biochemistry), toxicokinetics and the like were studied. • 8) All animals were euthanized on Day 8 (the animals in groups 7, 10, 17 and 20 were euthanized after administration on Day 6). • 9) During the experiment, gross anatomical observation was performed on the animals in groups 1 to 10, animals in groups 17 and 20, and dead animals (including animals in toxicological study). Histopathological examination was performed on abnormal tissues, gastrointestinal tissues (such as colon, cecum) and immune tissues (such as thymus). […]

[1] = PK studies in animals of salt crystal forms, intragastric 30 mg/kg; type: in vivo; details: 0.5% HPMC K4M suspension
Experimental: 7.2.1 Crystal form A of mesylate salt, crystal form D of sulfate salt and crystal form A of ethanesulfonate salt of (S)-2-((2-((R)-4-(difluoromethyl)-2-oxothiazolidin-3-yl)-5,6-dihydrobenzo[f]imidazo[1,2-d][1,4]oxazepin-9-yl)amino)propionamide were evenly suspended in an aqueous solution containing 0.5% HPMC (hydroxypropyl methylcellulose) K4M, and then intragastrically administered to rats in duplicate at a dose of 30 mg/kg. The amount of the compound was all converted into the amount of the same compound (S)-2-((2-((R)-4-(difluoromethyl)-2-oxothiazolidin-3-yl)-5,6-dihydrobenzo[f]imidazo[1,2-d][1,4]oxazepin-9-yl)amino)propionamide.

[2] = Hygroscopicity experiment; type: physicochemical; details: RH 80%
Experimental: Crystal form A of mesylate salt, crystal form D of sulfate salt and crystal form A of ethanesulfonate salt of (S)-2-((2-((R)-4-(difluoromethyl)-2-oxothiazolidin-3-yl)-5,6-dihydrobenzo[f]imidazo[1,2-d][1,4]oxazepin-9-yl)amino)propionamide were placed in saturated water vapor with different relative humidity, so that the compound and water vapor reached a dynamic equilibrium, and the percentage of hygroscopic weight gain of the compound after the equilibrium was calculated.

[3] = rat, in vivo, po, rats, 30 mg/kg (as free compound)

T2 sequence (O00329 whole entry): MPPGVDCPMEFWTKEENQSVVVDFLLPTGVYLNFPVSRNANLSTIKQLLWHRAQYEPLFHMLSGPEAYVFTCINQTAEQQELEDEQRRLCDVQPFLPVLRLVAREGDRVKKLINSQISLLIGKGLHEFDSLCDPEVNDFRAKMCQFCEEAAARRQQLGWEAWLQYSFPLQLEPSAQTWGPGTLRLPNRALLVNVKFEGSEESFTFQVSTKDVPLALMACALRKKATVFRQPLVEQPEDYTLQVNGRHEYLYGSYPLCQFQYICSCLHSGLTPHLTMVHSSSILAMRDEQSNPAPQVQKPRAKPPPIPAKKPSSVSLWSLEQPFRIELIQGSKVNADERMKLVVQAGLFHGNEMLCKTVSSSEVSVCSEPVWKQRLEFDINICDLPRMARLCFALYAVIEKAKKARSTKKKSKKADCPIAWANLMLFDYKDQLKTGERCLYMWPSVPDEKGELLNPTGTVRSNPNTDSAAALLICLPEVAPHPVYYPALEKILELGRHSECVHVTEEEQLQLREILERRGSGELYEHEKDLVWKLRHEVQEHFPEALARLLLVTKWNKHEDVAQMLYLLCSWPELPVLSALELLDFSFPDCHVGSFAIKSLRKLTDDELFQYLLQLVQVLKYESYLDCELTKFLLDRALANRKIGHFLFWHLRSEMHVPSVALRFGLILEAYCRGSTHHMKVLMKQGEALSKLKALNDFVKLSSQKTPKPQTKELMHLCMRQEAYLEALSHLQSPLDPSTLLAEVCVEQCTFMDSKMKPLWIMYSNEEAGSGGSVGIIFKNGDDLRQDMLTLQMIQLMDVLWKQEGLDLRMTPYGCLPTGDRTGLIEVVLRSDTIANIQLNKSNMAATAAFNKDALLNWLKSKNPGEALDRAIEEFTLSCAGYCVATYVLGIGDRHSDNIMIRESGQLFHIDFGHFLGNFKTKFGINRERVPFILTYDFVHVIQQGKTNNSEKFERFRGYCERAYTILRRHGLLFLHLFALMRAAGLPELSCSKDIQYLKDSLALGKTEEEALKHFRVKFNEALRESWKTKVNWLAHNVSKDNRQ
T2 sequence (P27986 whole entry partner): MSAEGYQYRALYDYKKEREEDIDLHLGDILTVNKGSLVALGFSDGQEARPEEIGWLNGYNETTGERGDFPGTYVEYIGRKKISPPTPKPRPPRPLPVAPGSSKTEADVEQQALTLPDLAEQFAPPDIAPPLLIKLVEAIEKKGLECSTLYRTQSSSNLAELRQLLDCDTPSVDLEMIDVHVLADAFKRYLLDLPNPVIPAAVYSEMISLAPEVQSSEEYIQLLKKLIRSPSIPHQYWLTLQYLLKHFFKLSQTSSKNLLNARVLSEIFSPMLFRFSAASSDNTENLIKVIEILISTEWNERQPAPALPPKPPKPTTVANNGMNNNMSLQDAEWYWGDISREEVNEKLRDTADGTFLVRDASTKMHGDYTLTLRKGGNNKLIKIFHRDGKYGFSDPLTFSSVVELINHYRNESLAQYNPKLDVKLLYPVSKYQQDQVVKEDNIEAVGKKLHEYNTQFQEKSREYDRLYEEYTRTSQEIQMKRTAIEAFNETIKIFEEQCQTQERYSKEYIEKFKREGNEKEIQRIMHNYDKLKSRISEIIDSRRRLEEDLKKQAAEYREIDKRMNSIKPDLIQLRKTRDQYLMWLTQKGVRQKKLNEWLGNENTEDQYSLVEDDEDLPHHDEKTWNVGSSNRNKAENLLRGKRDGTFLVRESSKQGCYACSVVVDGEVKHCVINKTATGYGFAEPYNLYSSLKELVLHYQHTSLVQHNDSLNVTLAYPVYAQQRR
T1 sequence (P42338 whole entry): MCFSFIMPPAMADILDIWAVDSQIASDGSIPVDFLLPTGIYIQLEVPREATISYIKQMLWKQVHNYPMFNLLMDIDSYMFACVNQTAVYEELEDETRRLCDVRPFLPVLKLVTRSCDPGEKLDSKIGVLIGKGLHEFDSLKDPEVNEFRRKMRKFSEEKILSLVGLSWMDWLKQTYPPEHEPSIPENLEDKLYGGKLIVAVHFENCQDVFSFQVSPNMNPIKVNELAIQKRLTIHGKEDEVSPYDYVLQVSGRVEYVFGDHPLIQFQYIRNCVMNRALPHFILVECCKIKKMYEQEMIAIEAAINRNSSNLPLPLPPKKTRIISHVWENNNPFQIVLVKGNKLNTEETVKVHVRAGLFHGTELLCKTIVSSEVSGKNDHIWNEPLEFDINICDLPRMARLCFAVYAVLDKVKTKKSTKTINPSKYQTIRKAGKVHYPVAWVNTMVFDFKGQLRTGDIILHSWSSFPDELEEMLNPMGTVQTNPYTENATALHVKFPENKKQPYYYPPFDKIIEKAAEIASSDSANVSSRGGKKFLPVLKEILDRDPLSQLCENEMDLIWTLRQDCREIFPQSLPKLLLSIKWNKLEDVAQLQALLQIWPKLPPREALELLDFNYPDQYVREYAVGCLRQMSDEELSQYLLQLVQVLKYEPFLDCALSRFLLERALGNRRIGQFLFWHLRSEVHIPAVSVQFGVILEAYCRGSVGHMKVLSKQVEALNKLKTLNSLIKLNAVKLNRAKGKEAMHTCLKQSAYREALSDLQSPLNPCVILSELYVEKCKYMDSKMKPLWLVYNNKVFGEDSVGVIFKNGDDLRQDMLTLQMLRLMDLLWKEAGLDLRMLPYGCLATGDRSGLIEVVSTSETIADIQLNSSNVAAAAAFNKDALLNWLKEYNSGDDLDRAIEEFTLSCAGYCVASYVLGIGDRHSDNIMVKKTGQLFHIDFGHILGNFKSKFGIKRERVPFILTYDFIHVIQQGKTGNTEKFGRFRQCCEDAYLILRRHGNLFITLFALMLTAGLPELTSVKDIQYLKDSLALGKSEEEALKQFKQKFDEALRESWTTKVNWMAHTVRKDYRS
T1 sequence (P27986 whole entry partner): as the sequence (P27986 whole entry partner) above
T3 sequence (P48736 whole entry): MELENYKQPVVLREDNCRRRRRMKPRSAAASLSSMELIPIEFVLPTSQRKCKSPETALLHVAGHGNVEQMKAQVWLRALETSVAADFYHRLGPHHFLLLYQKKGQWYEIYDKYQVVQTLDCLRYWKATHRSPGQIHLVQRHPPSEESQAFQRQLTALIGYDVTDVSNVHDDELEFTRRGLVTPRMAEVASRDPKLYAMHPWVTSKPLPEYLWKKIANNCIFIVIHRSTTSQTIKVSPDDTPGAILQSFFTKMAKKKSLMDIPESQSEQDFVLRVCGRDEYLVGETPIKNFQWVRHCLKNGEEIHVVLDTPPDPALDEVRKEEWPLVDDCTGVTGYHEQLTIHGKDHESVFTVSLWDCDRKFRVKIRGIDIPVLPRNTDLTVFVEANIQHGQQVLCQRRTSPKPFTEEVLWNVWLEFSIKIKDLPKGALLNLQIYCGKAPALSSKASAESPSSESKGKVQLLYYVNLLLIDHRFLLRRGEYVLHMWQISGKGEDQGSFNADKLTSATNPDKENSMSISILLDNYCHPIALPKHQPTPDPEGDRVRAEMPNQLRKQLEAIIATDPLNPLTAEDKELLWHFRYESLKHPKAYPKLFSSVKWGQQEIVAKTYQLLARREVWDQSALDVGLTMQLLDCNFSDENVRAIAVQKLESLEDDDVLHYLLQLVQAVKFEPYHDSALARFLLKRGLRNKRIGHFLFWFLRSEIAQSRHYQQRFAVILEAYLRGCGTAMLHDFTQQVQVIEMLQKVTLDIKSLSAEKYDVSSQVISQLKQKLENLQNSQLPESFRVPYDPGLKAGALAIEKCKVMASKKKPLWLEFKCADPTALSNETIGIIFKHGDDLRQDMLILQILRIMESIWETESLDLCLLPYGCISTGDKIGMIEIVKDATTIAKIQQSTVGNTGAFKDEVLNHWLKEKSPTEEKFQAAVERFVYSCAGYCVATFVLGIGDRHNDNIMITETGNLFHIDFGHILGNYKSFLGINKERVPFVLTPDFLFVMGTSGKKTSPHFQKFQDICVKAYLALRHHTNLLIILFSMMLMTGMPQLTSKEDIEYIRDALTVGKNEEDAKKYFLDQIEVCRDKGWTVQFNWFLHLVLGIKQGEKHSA

Compound	Selectivity of PI3Kα vs PI3Kβ (PI3Kβ)	Selectivity of PI3Kα vs PI3Kδ (PI3Kδ)	IC50 (MKN1 (E545K)) [nM]	IC50 (HGC-27 (E542K)) [nM]	Tumor growth inhibition rate (HCC1954 cell) [%]	Selectivity of PI3Kα vs PI3Kγ (PI3Kγ)	IC50 (HCC1954 (H1047R)) [nM]	lethal dose (SD rats) [mg/kg]	exposure in rats (in words) ([1]; 30 mg/kg)	AUC(0-inf) [1, 3] [ng·h/mL]	AUC(0-t) [1, 3] [ng·h/mL]	Cmax [1, 3] [ng/mL]	Tmax [1, 3] [h]	half-life [1, 3] [h]	MRT inf ([1]; rat, in vivo, po, rats, 30 mg/kg (as free compound), read-out: MRT0-∞) [h]	hygroscopic weight gain [2] [%]	hygroscopicity (in words) [2]
C[C@H](Nc1ccc2c(c1F)OCCn1cc(N3C(=O)SC[C@H]3C(F)F)nc1-2)C(N)=O [Example 50, (S)-2-((2-((R)-4-(difluoromethyl)-2-oxothiazolidin-3-yl)-8-fluoro-5,6-dihydrobenzo[f]imidazo[1,2-d][1,4]oxazepin-9-yl)amino)propionamide]	197	81	118	233	96	103	98	–	–	–	–	–	–	–	–	–	–
C[C@H](Nc1ccc2c(c1)OCCn1cc(N3C(=O)OC[C@H]3C(F)F)nc1-2)C(N)=O [GDC-0077, reference compound]	–	–	–	–	–	–	–	60	–	–	–	–	–	–	–	–	–
COC[C@H](Nc1ccc2c(c1)OCCn1cc(N3C(=O)SC[C@H]3C(F)F)nc1-2)C(N)=O [Example 52, (S)-2-((2-((R)-4-(difluoromethyl)-2-oxothiazolidin-3-yl)-5,6-dihydrobenzo[f]imidazo[1,2-d][1,4]oxazepin-9-yl)amino)-3-methoxypropionamide]	754	139	109	137	98	376	57	–	–	–	–	–	–	–	–	–	–
C[C@H](Nc1ccc2c(c1)OCCn1cc(N3C(=O)O[C@H](C)[C@H]3C(F)F)nc1-2)C(N)=O [Example 25, (S)-2-((2-((4S,5R)-4-(difluoromethyl)-5-methyl-2-oxooxazolidin-3-yl)-5,6-dihydrobenzo[f]imidazo[1,2-d][1,4]oxazepin-9-yl)amino)propionamide]	1499	280	84	93	120	401	79	–	–	–	–	–	–	–	–	–	–
C[C@H](Nc1ccc2c(c1)OCCn1cc(N3C(=O)SC[C@H]3C(F)F)nc1-2)C(N)=O.O=S(=O)(O)O [crystal form D of sulfate salt, (S)-2-((2-((R)-4-(difluoromethyl)-2-oxothiazolidin-3-yl)-5,6-dihydrobenzo[f]imidazo[1,2-d][1,4]oxazepin-9-yl)amino)propionamide]	–	–	–	–	–	–	–	–	higher exposures	9600	9420	1360	1	3.3	5.77	1.256	had hygroscopicity

Source: patent US12624050B2, “Three fused ring derivative-containing salt or crystal form and pharmaceutical composition thereof” (Shanghai Hansoh Biomedical Co., Ltd., priority 2019, dated 2026)
